Measured values reported in ChEMBL document CHEMBL1201862, “PubChem BioAssay data set” (2004).
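Protocol summary: plate cells (96-well), add compound at 5 concentrations, incubate 48 h, interpolate endpoints linearly. The concentration for 50% growth inhibition is given as GI50.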 Calls of active or inactive are those of the source. No stated cut-off is given here; in the data, active = GI50 up to about 1.1 µM and inactive = higher.

How the values were obtained:
Experiment in all cases: DTP human tumour cell line panel, 48 h
HL-60 = test system: HL-60
IGROV-1 = test system: IGROV-1
K562 = test system: K562
MOLT-4 = test system: MOLT-4
NCI-H226 = test system: NCI-H226
NCI-H522 = test system: NCI-H522
OVCAR-3 = test system: OVCAR-3
OVCAR-5 = test system: OVCAR-5
RPMI-8226 = test system: RPMI-8226
SF-295 = test system: SF-295
SF-539 = test system: SF-539
SK-MEL-2 = test system: SK-MEL-2
SK-MEL-5 = test system: SK-MEL-5
SK-OV-3 = test system: SK-OV-3
SW-620 = test system: SW-620
U-251 = test system: U-251
UO-31 = test system: UO-31
MDA-MB-435 = test system: MDA-MB-435
SR = test system: SR

| SMILES | GI50 (HL-60) | GI50 (IGROV-1) | GI50 (K562) | GI50 (MOLT-4) | GI50 (NCI-H226) | GI50 (NCI-H522) | GI50 (OVCAR-3) | GI50 (OVCAR-5) | GI50 (RPMI-8226) | GI50 (SF-295) | GI50 (SF-539) | GI50 (SK-MEL-2) | GI50 (SK-MEL-5) | GI50 (SK-OV-3) | GI50 (SW-620) | GI50 (U-251) | GI50 (UO-31) | GI50 (MDA-MB-435) | GI50 (SR) |
| --- | --- | --- | --- | --- | --- | --- | --- | --- | --- | --- | --- | --- | --- | --- | --- | --- | --- | --- | --- |
| Nc1ccccc1SC(/C=C/NNC1=NN=C(c2ccccc2)C(c2ccccc2)N1)c1ccccc1 (stereo unspecified) | 3.32 µM (inactive) | 15.4 µM (inactive) | 9.25 µM (inactive) | 3.64 µM (inactive) | 13.7 µM (inactive) | 3.85 µM (inactive) | 13 µM (inactive) | 20.8 µM (inactive) | 2.96 µM (inactive) | 12.1 µM (inactive) | 13.2 µM (inactive) | 17.7 µM (inactive) | 13.4 µM (inactive) | 29.6 µM (inactive) | 11.7 µM (inactive) | 15 µM (inactive) | 4.45 µM (inactive) |  |  |
| O=C(Cc1ccccc1)NN1C(=O)/C(=C\c2cccc(O)c2)S/C1=N\c1ccccc1 |  | > 100 µM (inactive) |  |  | > 100 µM (inactive) |  | 83.4 µM (inactive) | > 100 µM (inactive) |  | > 100 µM (inactive) | > 100 µM (inactive) | > 100 µM (inactive) | > 100 µM (inactive) | > 100 µM (inactive) | > 100 µM (inactive) | > 100 µM (inactive) | 55.8 µM (inactive) | > 100 µM (inactive) |  |
| O=[N+]([O-])c1cc(C2SCc3nc4ccccc4n32)ccc1Cl (stereo unspecified) | 16 µM (inactive) | 45.9 µM (inactive) | 17.1 µM (inactive) | 31.3 µM (inactive) | 25.1 µM (inactive) | 20 µM (inactive) | 25.3 µM (inactive) | 14.3 µM (inactive) | 20.3 µM (inactive) | 38 µM (inactive) | 27.8 µM (inactive) | 21.2 µM (inactive) | 15 µM (inactive) | 28.1 µM (inactive) | 41 µM (inactive) | 27.2 µM (inactive) | 18.5 µM (inactive) |  | 30.2 µM (inactive) |
| CC1=C(C(=O)Nc2cc(=O)n(C)c(=O)n2C)C(c2ccc([N+](=O)[O-])cc2)C(C(=O)Nc2cc(=O)n(C)c(=O)n2C)=C(C)N1 | > 100 µM (inactive) | > 100 µM (inactive) | 75.5 µM (inactive) | 52.4 µM (inactive) | 49.3 µM (inactive) | 37.1 µM (inactive) | > 100 µM (inactive) | > 100 µM (inactive) | 59.6 µM (inactive) | > 100 µM (inactive) | > 100 µM (inactive) | > 100 µM (inactive) |  | 32.3 µM (inactive) | > 100 µM (inactive) | > 100 µM (inactive) | 21.8 µM (inactive) |  |  |
| CCOC(=O)C(C(C)=O)C1CC=CC1 (stereo unspecified) | > 100 µM (inactive) | > 100 µM (inactive) | > 100 µM (inactive) | > 100 µM (inactive) | > 100 µM (inactive) |  | > 100 µM (inactive) | > 100 µM (inactive) | > 100 µM (inactive) | > 100 µM (inactive) |  | > 100 µM (inactive) | > 100 µM (inactive) | > 100 µM (inactive) | > 100 µM (inactive) | > 100 µM (inactive) | > 100 µM (inactive) |  |  |
| CC(=O)c1cccc(NC(=O)C(=O)C(C(=O)NN)c2ccccc2)c1 (stereo unspecified) |  | > 100 µM (inactive) | > 100 µM (inactive) | > 100 µM (inactive) | > 100 µM (inactive) | > 100 µM (inactive) | > 100 µM (inactive) | > 100 µM (inactive) | > 100 µM (inactive) |  | > 100 µM (inactive) | > 100 µM (inactive) | > 100 µM (inactive) | > 100 µM (inactive) | > 100 µM (inactive) | > 100 µM (inactive) | > 100 µM (inactive) |  |  |
| CCn1cc(C(=O)O)c(=O)c2cc(F)c(N3CCNCC3)nc21 [ENOXACIN] | > 100 µM (inactive) | > 100 µM (inactive) | 63.5 µM (inactive) | 67.1 µM (inactive) | > 100 µM (inactive) | 24.4 µM (inactive) | > 100 µM (inactive) | > 100 µM (inactive) | > 100 µM (inactive) | > 100 µM (inactive) | > 100 µM (inactive) | > 100 µM (inactive) | 87.5 µM (inactive) | > 100 µM (inactive) | > 100 µM (inactive) | 66.7 µM (inactive) | > 100 µM (inactive) |  | 77.8 µM (inactive) |
| CCN(CC)C(=O)c1c(N2CCOCC2)cc(N(CC)CC)oc1=O | > 100 µM (inactive) | > 100 µM (inactive) | > 100 µM (inactive) | > 100 µM (inactive) | > 100 µM (inactive) | > 100 µM (inactive) | > 100 µM (inactive) |  | > 100 µM (inactive) | > 100 µM (inactive) | > 100 µM (inactive) | > 100 µM (inactive) |  | > 100 µM (inactive) | > 100 µM (inactive) | > 100 µM (inactive) | > 100 µM (inactive) |  | > 100 µM (inactive) |
| O=C1N(c2ccccc2)C2(O)C(=O)c3ccccc3C2(O)N1c1ccccc1 (stereo unspecified) |  | > 100 µM (inactive) | > 100 µM (inactive) | > 100 µM (inactive) | > 100 µM (inactive) | > 100 µM (inactive) | > 100 µM (inactive) | > 100 µM (inactive) | > 100 µM (inactive) | > 100 µM (inactive) | > 100 µM (inactive) | > 100 µM (inactive) | > 100 µM (inactive) | > 100 µM (inactive) | > 100 µM (inactive) | > 100 µM (inactive) | > 100 µM (inactive) |  | > 100 µM (inactive) |
| COC(=O)NN=C1C(C)(C)C(=NNC(=O)OC)C1(C)C | > 100 µM (inactive) | > 100 µM (inactive) | > 100 µM (inactive) | > 100 µM (inactive) | > 100 µM (inactive) | > 61.4 µM (inactive) | > 100 µM (inactive) | > 100 µM (inactive) |  | > 100 µM (inactive) | > 100 µM (inactive) | > 100 µM (inactive) | > 100 µM (inactive) | > 100 µM (inactive) | > 100 µM (inactive) | > 62.7 µM (inactive) | > 100 µM (inactive) |  |  |
| Cc1cc(C)cc(-n2c3nc(=O)n(C)c(=O)c-3nc3ccccc32)c1 |  | 36.1 µM (inactive) | 22.1 µM (inactive) | 23 µM (inactive) | 34.7 µM (inactive) | 17.5 µM (inactive) | 3.34 µM (inactive) | 39.5 µM (inactive) | 29.7 µM (inactive) | 36 µM (inactive) | 21.4 µM (inactive) | 22.9 µM (inactive) | 15.8 µM (inactive) | > 100 µM (inactive) | 17 µM (inactive) | 21.8 µM (inactive) | 64.1 µM (inactive) |  |  |
| CC(=O)CC(=O)Nc1ccccc1C(F)(F)F | > 100 µM (inactive) | > 100 µM (inactive) | > 100 µM (inactive) | > 100 µM (inactive) | > 100 µM (inactive) | > 100 µM (inactive) |  | > 100 µM (inactive) | > 100 µM (inactive) |  | > 100 µM (inactive) | > 100 µM (inactive) | > 100 µM (inactive) | > 100 µM (inactive) | > 100 µM (inactive) | > 100 µM (inactive) | > 100 µM (inactive) |  |  |
| COc1cc2c(c(OC(C)=O)c1OC(C)=O)-c1ccc(SC)c(=O)cc1C(NC(C)=O)CC2 (stereo unspecified) | 0.375 µM (active) | 4.45 µM (inactive) | 0.483 µM (active) | 1.52 µM (inactive) | 6.87 µM (inactive) | 0.379 µM (active) | 0.5 µM (active) | > 50.1 µM (inactive) | 1.36 µM (inactive) | 2.23 µM (inactive) | 0.494 µM (active) | 0.565 µM (active) | 0.631 µM (active) | > 19.5 µM (inactive) | 0.951 µM (active) | 2.49 µM (inactive) | 89.1 µM (inactive) |  | 0.964 µM (active) |
| C/C(=N\NC(=S)N(C)C)c1ncc[nH]1 | 2.63 µM (inactive) | 2.78 µM (inactive) | 2.59 µM (inactive) | 3.06 µM (inactive) |  | 2.62 µM (inactive) | 3.36 µM (inactive) | 2.55 µM (inactive) | 4.2 µM (inactive) | 4.28 µM (inactive) | 2.77 µM (inactive) | 3.69 µM (inactive) | 4.46 µM (inactive) | 3.87 µM (inactive) | 4.59 µM (inactive) | 2.23 µM (inactive) | 2.1 µM (inactive) |  | 2.81 µM (inactive) |
| Cc1cc(NS(=O)(=O)c2ccc(NC(=O)c3cccc4c(Nc5ccc(S(=O)(=O)N=C(N)N)cc5)c5ccccc5nc34)cc2)no1 | > 100 µM (inactive) | > 100 µM (inactive) | > 100 µM (inactive) | > 100 µM (inactive) | > 100 µM (inactive) | > 100 µM (inactive) | > 100 µM (inactive) | > 100 µM (inactive) | > 100 µM (inactive) | > 100 µM (inactive) | > 100 µM (inactive) |  | > 100 µM (inactive) | > 100 µM (inactive) | > 100 µM (inactive) | > 100 µM (inactive) | > 100 µM (inactive) |  | > 100 µM (inactive) |
| CC1(C)CCC[C@@]2(C)C1C[C@H](O)[C@@]1(C)O[C@@](C)([C@H](O)CO)CCC21 (stereo partly specified) | 24.9 µM (inactive) | 28.9 µM (inactive) | 26.9 µM (inactive) | 21.2 µM (inactive) | 28.7 µM (inactive) | 25.9 µM (inactive) | 29.8 µM (inactive) | 39.8 µM (inactive) | 20 µM (inactive) | 35.6 µM (inactive) | 37.2 µM (inactive) | 20.7 µM (inactive) | 20.9 µM (inactive) | 25.1 µM (inactive) | 47 µM (inactive) | 37.2 µM (inactive) | 26.1 µM (inactive) |  |  |
| CCCc1c[nH]c(-c2ccc(-c3cc(CCC)c(C=O)[nH]3)s2)c1 | 21.2 µM (inactive) | 30.4 µM (inactive) | 12.4 µM (inactive) | 26.4 µM (inactive) | 18.7 µM (inactive) | 16 µM (inactive) | 17 µM (inactive) |  |  | 18.9 µM (inactive) | 18.7 µM (inactive) | 15 µM (inactive) | 16.9 µM (inactive) | 18.5 µM (inactive) | 17.4 µM (inactive) | 15.6 µM (inactive) | 0.0165 µM (active) |  |  |
